Experiments:
[1] = biological target: intracellular phosphorylation of EGFR (Tyr1068) in PC-9 cells (Ex19Del) (Homo sapiens, UniProt P00533, DEL746-750); assay: PC-9 pEGFR AlphaLISA assay; format: cell-based; settings: 4 hours compound incubation, read-out: Ext pEGFR_PC-9 Ex19Del IC50
EGFR (d746-750) = biological target: T1, EGFR (d746-750) (Homo sapiens, UniProt P00533, DEL746-750); assay: Biochemical EGFR inhibition assay (Caliper mobility shift), EGFR (d746-750); settings: read-out: Enz EGFR_Exon19-del746-750 IC50
T1 construct: purchased SignalChem E10-122JG
T1 sequence (P00533 with tags, fused parts or gaps DEL746-750 limits assumed): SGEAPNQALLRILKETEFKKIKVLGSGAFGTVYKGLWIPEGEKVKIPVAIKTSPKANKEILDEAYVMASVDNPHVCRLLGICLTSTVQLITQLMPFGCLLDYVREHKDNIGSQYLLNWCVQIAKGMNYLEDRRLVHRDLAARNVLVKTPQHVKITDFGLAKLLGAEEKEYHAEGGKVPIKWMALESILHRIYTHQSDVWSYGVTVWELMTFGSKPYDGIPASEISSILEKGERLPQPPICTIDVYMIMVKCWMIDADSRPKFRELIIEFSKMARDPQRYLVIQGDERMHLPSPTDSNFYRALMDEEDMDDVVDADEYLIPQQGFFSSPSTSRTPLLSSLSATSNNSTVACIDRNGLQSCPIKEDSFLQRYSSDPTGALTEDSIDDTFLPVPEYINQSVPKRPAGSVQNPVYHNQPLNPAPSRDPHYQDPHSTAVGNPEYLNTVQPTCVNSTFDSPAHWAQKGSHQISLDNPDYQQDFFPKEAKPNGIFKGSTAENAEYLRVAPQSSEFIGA

EGFR L858R = biological target: T2, EGFR L858R (Homo sapiens, UniProt P00533, L858R); assay: Biochemical EGFR inhibition assay (Caliper mobility shift), EGFR L858R; settings: read-out: Enz EGFR_L858R IC50
T2 construct: purchased SignalChem E10-122BG
T2 sequence (P00533 25-1210 L858R): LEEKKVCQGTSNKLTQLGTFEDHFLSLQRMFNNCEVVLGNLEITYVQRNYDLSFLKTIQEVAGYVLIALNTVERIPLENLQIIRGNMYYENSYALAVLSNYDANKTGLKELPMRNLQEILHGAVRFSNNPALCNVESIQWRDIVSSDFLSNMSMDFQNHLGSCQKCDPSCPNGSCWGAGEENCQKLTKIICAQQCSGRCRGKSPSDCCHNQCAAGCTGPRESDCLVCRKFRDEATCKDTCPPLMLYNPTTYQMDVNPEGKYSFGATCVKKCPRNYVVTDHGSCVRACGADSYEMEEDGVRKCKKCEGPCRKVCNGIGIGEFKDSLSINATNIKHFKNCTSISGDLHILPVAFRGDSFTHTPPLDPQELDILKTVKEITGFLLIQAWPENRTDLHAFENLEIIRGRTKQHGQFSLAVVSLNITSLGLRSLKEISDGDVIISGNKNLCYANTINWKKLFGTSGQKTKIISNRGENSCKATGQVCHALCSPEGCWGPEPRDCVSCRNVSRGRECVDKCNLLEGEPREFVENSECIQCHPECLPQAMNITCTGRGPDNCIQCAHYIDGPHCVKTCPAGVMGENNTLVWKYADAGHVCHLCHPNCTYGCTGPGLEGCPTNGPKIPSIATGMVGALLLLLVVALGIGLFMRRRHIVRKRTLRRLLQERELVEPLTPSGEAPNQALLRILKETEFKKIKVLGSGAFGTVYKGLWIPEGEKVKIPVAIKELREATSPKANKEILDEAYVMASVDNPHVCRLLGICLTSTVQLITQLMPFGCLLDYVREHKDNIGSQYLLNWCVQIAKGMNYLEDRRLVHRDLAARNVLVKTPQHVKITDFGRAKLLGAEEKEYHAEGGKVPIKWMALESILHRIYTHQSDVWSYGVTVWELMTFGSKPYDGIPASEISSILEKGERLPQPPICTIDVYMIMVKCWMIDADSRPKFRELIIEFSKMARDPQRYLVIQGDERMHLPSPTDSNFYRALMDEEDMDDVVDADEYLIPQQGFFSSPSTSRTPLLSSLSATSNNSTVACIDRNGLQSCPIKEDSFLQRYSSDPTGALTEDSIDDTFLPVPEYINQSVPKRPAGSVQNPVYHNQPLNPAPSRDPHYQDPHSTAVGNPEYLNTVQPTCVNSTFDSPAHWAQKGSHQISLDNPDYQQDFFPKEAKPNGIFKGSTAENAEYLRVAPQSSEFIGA

Sequence of intracellular phosphorylation of EGFR (Tyr1068) in PC-9 cells (Ex19Del) (P00533 with tags, fused parts or gaps DEL746-750): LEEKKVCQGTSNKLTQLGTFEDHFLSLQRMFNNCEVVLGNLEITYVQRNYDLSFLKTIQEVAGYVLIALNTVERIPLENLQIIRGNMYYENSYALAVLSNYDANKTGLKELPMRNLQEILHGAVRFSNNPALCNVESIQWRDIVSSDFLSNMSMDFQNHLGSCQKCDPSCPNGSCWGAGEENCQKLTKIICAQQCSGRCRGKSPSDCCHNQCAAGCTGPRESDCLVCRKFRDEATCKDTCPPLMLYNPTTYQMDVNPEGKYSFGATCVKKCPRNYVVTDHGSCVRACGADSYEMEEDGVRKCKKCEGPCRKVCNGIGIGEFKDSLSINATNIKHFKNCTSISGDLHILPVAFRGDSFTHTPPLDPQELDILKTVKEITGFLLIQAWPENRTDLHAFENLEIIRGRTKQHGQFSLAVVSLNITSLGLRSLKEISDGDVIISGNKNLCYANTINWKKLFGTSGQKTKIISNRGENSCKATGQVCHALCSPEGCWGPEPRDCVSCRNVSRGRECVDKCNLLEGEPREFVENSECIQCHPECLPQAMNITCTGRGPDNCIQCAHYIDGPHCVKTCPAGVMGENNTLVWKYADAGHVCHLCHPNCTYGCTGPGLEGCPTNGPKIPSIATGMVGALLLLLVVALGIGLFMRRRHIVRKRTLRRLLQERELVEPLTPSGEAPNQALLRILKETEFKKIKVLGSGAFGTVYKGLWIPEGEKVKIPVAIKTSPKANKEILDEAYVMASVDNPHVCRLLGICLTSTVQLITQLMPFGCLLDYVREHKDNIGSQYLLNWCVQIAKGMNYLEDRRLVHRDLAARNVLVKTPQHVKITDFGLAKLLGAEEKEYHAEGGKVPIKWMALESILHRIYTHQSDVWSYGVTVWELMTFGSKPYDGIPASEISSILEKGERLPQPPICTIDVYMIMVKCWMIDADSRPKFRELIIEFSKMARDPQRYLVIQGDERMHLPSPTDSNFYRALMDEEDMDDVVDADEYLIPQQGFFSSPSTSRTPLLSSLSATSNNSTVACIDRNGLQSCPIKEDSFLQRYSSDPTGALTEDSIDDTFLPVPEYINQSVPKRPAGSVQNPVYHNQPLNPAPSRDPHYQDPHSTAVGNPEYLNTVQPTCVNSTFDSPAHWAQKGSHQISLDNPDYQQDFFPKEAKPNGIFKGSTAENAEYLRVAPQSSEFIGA

SMILES | IC50 [1] [nM] | IC50 (EGFR (d746-750)) [nM] | IC50 (EGFR L858R) [nM]
C[C@H](CN(C)C)Oc1cc(-n2cc(F)cn2)cc2ncnc(Nc3ccc4ncccc4c3F)c12 [Example 82, (R)-5-((1-(dimethylamino)propan-2-yl)oxy)-7-(4-fluoro-1H-pyrazol-1-yl)-N-(5-fluoroquinolin-6-yl)quinazolin-4-amine] | ≤ 10 | < 10 | < 10
Cc1cnn(-c2cc(O[C@H](C)CN(C)C)c3c(Nc4ccc5ncccc5c4F)ncnc3c2)c1 [Example 83, (R)-5-((1-(dimethylamino)propan-2-yl)oxy)-N-(5-fluoroquinolin-6-yl)-7-(4-methyl-1H-pyrazol-1-yl)quinazolin-4-amine] | ≤ 10 | < 10 | < 10
C[C@H](CN(C)C)Oc1cc(N2CC[C@H](C(C)(C)O)C2)cc2ncnc(Nc3c(F)cc4ncccc4c3F)c12 [Example 88, 2—((S)-1-(4-((5,7-difluoroquinolin-6-yl)amino)-5-(((R)-1-(dimethylamino)propan-2-yl)oxy)quinazolin-7-yl)pyrrolidin-3-yl)propan-2-ol] | ≤ 10 | < 10 | < 10
C[C@H](CN(C)C)Oc1cc(N2C3COCC2C3)cc2ncnc(Nc3ccc4ncccc4c3F)c12 [Example 89, 7-(3-oxa-6-azabicyclo[3.1.1]heptan-6-yl)-5-(((R)-1-(dimethylamino)propan-2-yl)oxy)-N-(5-fluoroquinolin-6-yl)quinazolin-4-amine] | > 50.1 | > 50.1 | > 50.1
C[C@H](CN(C)C)Oc1cc(N2CCn3cncc3C2)cc2ncnc(Nc3ccc4ncccc4c3F)c12 [Example 90, (R)-7-(5,6-dihydroimidazo[1,5-a]pyrazin-7(8H)-yl)-5-((1-(dimethylamino)propan-2-yl)oxy)-N-(5-fluoroquinolin-6-yl)quinazolin-4-amine] | ≤ 10 | < 10 | 10.1 to 50
C[C@H](CN(C)C)Oc1cc(N2CCOC3(CC3)C2)cc2ncnc(Nc3ccc4ncccc4c3F)c12 [Example 91, (R)-5-((1-(dimethylamino)propan-2-yl)oxy)-N-(5-fluoroquinolin-6-yl)-7-(4-oxa-7-azaspiro[2.5]octan-7-yl)quinazolin-4-amine] | > 50.1 | 10.1 to 50 | > 50.1
C[C@H](CN(C)C)Oc1cc(N2CCOC[C@@H]2CO)cc2ncnc(Nc3ccc4ncccc4c3F)c12 [Example 92, ((S)-4-(5-(((R)-1-(dimethylamino)propan-2-yl)oxy)-4-((5-fluoroquinolin-6-yl)amino)quinazolin-7-yl)morpholin-3-yl)methanol] | 10.1 to 50 | < 10 | 10.1 to 50
C[C@H](CN(C)C)Oc1cc(N2CC(C)(O)C2)cc2ncnc(Nc3ccc4ncccc4c3F)c12 [Example 93, (R)-1-(5-((1-(dimethylamino)propan-2-yl)oxy)-4-((5-fluoroquinolin-6-yl)amino)quinazolin-7-yl)-3-methylazetidin-3-ol] | 10.1 to 50 | < 10 | 10.1 to 50
C[C@H](CN(C)C)Oc1cc(N2CCC(C)(O)CC2)cc2ncnc(Nc3ccc4ncccc4c3F)c12 [Example 94, (R)-1-(5-((1-(dimethylamino)propan-2-yl)oxy)-4-((5-fluoroquinolin-6-yl)amino)quinazolin-7-yl)-4-methylpiperidin-4-ol] | 10.1 to 50 | < 10 | 10.1 to 50
C[C@H](CN(C)C)Oc1cc(N2CCCS2(=O)=O)cc2ncnc(Nc3ccc4ncccc4c3F)c12 [Example 95, (R)-2-(5-((1-(dimethylamino)propan-2-yl)oxy)-4-((5-fluoroquinolin-6-yl)amino)quinazolin-7-yl)isothiazolidine 1,1-dioxide] | 10.1 to 50 | < 10 | 10.1 to 50
C[C@H](CN(C)C)Oc1cc(N2CCCC2=O)cc2ncnc(Nc3ccc4ncccc4c3F)c12 [Example 96, (R)-1-(5-((1-(dimethylamino)propan-2-yl)oxy)-4-((5-fluoroquinolin-6-yl)amino)quinazolin-7-yl)pyrrolidin-2-one] | ≤ 10 | < 10 | 10.1 to 50
C[C@H](CN(C)C)Oc1cc(N2CC3(CCS3(=O)=O)C2)cc2ncnc(Nc3ccc4ncccc4c3F)c12 [Example 97, (R)-6-(5-((1-(dimethylamino)propan-2-yl)oxy)-4-((5-fluoroquinolin-6-yl)amino)quinazolin-7-yl)-1-thia-6-azaspiro[3.3]heptane 1,1-dioxide] | ≤ 10 | < 10 | < 10
CNC[C@@H](C)Oc1cc(-c2cnn(C)c2)cc2ncnc(Nc3ccc4ncccc4c3F)c12 [Example 100, (R)—N-(5-fluoroquinolin-6-yl)-7-(1-methyl-1H-pyrazol-4-yl)-5-((1-(methylamino)propan-2-yl)oxy)quinazolin-4-amine] | 10.1 to 50 | 10.1 to 50 | 10.1 to 50
C[C@H](CN1CCC1)Oc1cc(-c2cnn(C)c2)cc2ncnc(Nc3ccc4ncccc4c3F)c12 [Example 101, (R)-5-((1-(azetidin-1-yl)propan-2-yl)oxy)-N-(5-fluoroquinolin-6-yl)-7-(1-methyl-1H-pyrazol-4-yl)quinazolin-4-amine] | ≤ 10 | < 10 | 10.1 to 50
CCNC[C@@H](C)Oc1cc(-c2cnn(C)c2)cc2ncnc(Nc3ccc4ncccc4c3F)c12 [Example 102, (R)-5-((1-(ethylamino)propan-2-yl)oxy)-N-(5-fluoroquinolin-6-yl)-7-(1-methyl-1H-pyrazol-4-yl)quinazolin-4-amine] | > 50.1 | 10.1 to 50 | 10.1 to 50
C[C@H](CN(C)C)Oc1cc(-c2cnn(C)c2)cc2ncnc(Nc3ccc4nccnc4c3)c12 [Example 103, (R)-5-((1-(dimethylamino)propan-2-yl)oxy)-7-(1-methyl-1H-pyrazol-4-yl)-N-(quinoxalin-6-yl)quinazolin-4-amine] | 10.1 to 50 | < 10 | 10.1 to 50
C[C@H](CN(C)C)Oc1cc(-c2cnn(C)c2)cc2ncnc(Nc3ccc4ncc(F)cc4c3F)c12 [Example 104, (R)—N-(3,5-difluoroquinolin-6-yl)-5-((1-(dimethylamino)propan-2-yl)oxy)-7-(1-methyl-1H-pyrazol-4-yl)quinazolin-4-amine] | 10.1 to 50 | < 10 | 10.1 to 50
Cc1ccc2cc(Nc3ncnc4cc(-c5cnn(C)c5)cc(O[C@H](C)CN(C)C)c34)ccc2n1 [Example 105, (R)-5-((1-(dimethylamino)propan-2-yl)oxy)-7-(1-methyl-1H-pyrazol-4-yl)-N-(2-methylquinolin-6-yl)quinazolin-4-amine] | 10.1 to 50 | < 10 | 10.1 to 50
C[C@H](CN(C)C)Oc1cc(-c2cnn(C)c2)cc2ncnc(Nc3c(F)cc4ncccc4c3F)c12 [Example 106, (R)—N-(5,7-difluoroquinolin-6-yl)-5-((1-(dimethylamino)propan-2-yl)oxy)-7-(1-methyl-1H-pyrazol-4-yl)quinazolin-4-amine] | ≤ 10 | < 10 | < 10
Cc1ccc2c(F)c(Nc3ncnc4cc(-c5cnn(C)c5)cc(O[C@H](C)CN(C)C)c34)ccc2n1 [Example 107, (R)-5-((1-(dimethylamino)propan-2-yl)oxy)-N-(5-fluoro-2-methylquinolin-6-yl)-7-(1-methyl-1H-pyrazol-4-yl)quinazolin-4-amine] | 10.1 to 50 | < 10 | 10.1 to 50
C[C@H](CN(C)C)Oc1cc(-c2cnn(C)c2)cc2ncnc(Nc3ccc4cccnc4c3F)c12 [Example 108, (R)-5-((1-(dimethylamino)propan-2-yl)oxy)-N-(8-fluoroquinolin-7-yl)-7-(1-methyl-1H-pyrazol-4-yl)quinazolin-4-amine] | 10.1 to 50 | < 10 | 10.1 to 50
C[C@H](CN(C)C)Oc1cc(-c2cnn(C)c2)cc2ncnc(Nc3ccc4nccnc4c3F)c12 [Example 109, (R)-5-((1-(dimethylamino)propan-2-yl)oxy)-N-(5-fluoroquinoxalin-6-yl)-7-(1-methyl-1H-pyrazol-4-yl)quinazolin-4-amine] | > 50.1 | 10.1 to 50 | > 50.1
C[C@H](CN(C)C)Oc1cc(-c2cnn(C)c2)cc2ncnc(Nc3cnc4ccccc4c3F)c12 [Example 110, (R)-5-((1-(dimethylamino)propan-2-yl)oxy)-N-(4-fluoroquinolin-3-yl)-7-(1-methyl-1H-pyrazol-4-yl)quinazolin-4-amine] | > 50.1 | < 10 | < 10
C[C@@H](Oc1cc(-c2cnn(C)c2)cc2ncnc(Nc3ccc4ncccc4c3F)c12)C(CO)CO [Example 111, (R)-2-(1-((4-((5-fluoroquinolin-6-yl)amino)-7-(1-methyl-1H-pyrazol-4-yl)quinazolin-5-yl)oxy)ethyl)propane-1,3-diol] | ≤ 10 | < 10 | < 10
COCC(CO)[C@@H](C)Oc1cc(-c2cnn(C)c2)cc2ncnc(Nc3ccc4ncccc4c3F)c12 (stereo partly drawn) [Example 112, (3R)-3-((4-((5-fluoroquinolin-6-yl)amino)-7-(1-methyl-1H-pyrazol-4-yl)quinazolin-5-yl)oxy)-2-(methoxymethyl)butan-1-ol] | ≤ 10 | < 10 | < 10
C[C@@H](Oc1cc(-c2cnn(C)c2)cc2ncnc(Nc3ccc4ncccc4c3F)c12)C(CO)CCl (stereo partly drawn) [Example 113, (3R)-2-(chloromethyl)-3-((4-((5-fluoroquinolin-6-yl)amino)-7-(1-methyl-1H-pyrazol-4-yl)quinazolin-5-yl)oxy)butan-1-ol] | ≤ 10 | < 10 | < 10

Reference: patent US12662465B2, “EGFR inhibitors” (Blueprint Medicines Corporation, priority 2021, dated 2026)
